In ChEMBL document CHEMBL5291721, “A preclinical secondary pharmacology resource illuminates target-adverse drug reaction associations of marketed drugs” (Nat Commun, 2023):

Assays:
[1] = target: Beta-3 adrenergic receptor (Homo sapiens, UniProt P13945)
B1 bradykinin receptor = target: T1, B1 bradykinin receptor (Homo sapiens, UniProt P46663)
T1 sequence (P46663 whole entry): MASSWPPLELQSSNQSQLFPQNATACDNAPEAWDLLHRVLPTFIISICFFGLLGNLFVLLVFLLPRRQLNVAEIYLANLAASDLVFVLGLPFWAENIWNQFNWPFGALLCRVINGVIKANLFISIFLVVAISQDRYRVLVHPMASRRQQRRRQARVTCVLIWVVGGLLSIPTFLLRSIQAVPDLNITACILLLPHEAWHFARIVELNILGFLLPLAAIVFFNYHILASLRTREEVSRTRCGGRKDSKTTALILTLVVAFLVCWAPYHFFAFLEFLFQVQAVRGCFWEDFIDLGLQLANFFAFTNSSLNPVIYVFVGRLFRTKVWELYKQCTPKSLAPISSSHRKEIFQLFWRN

[2] = target: T2, Corticotropin-releasing factor receptor 2 (Homo sapiens, UniProt Q13324)
T2 sequence (Q13324 whole entry): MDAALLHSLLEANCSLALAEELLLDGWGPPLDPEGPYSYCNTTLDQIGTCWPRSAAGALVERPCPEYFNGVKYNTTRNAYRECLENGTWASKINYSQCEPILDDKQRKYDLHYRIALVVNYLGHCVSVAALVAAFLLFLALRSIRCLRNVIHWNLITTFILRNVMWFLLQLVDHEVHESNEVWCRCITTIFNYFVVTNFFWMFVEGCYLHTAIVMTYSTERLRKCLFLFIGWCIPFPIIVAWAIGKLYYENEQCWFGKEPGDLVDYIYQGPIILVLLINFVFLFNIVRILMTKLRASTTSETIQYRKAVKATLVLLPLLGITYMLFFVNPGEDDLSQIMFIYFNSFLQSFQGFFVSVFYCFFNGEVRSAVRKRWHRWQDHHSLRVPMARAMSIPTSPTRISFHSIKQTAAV

D(4) dopamine receptor = target: T3, D(4) dopamine receptor (Homo sapiens, UniProt P21917)
T3 sequence (P21917 whole entry): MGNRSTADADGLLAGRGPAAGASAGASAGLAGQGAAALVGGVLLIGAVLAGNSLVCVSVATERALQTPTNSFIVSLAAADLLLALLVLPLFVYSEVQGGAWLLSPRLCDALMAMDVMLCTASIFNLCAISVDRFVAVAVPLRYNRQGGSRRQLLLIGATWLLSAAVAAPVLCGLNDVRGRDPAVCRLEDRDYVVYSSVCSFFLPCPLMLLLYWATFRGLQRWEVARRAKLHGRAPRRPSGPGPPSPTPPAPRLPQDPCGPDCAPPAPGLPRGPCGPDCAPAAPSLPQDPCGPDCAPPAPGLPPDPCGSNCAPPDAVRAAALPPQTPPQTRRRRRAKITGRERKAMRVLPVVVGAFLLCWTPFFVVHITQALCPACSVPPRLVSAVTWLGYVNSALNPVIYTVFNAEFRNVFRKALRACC

Glucagon receptor = Glucagon receptor (Homo sapiens, UniProt P47871)
[3] = target: T4, Gastric inhibitory polypeptide receptor (Homo sapiens, UniProt P48546)
T4 sequence (P48546 whole entry): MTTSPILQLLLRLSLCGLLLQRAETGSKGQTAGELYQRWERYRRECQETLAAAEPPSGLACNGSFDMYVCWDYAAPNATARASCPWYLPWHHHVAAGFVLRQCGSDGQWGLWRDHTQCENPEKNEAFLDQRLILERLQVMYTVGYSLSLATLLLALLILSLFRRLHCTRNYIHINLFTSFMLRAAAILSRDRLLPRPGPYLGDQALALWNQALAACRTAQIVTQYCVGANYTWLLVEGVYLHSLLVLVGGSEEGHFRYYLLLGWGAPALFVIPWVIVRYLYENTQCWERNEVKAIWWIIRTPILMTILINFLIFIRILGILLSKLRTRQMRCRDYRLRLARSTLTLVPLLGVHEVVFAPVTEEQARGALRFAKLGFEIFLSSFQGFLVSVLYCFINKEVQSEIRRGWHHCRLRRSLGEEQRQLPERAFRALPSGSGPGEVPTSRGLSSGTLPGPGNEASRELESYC

[4] = target: T5, Neuropeptide Y receptor type 2 (Homo sapiens, UniProt P49146)
T5 sequence (P49146 whole entry): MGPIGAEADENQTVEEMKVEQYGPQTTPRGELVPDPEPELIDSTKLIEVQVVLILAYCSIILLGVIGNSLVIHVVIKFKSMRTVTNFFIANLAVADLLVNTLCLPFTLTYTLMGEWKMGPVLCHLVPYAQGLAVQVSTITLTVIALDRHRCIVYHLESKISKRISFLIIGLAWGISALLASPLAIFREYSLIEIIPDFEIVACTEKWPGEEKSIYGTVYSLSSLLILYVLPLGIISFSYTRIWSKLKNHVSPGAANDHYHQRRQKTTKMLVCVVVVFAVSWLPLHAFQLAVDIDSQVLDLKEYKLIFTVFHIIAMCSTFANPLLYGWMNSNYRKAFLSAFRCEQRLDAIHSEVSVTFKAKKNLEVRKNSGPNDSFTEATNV

[5] = target: Neurotensin receptor type 1 (Homo sapiens, UniProt P30989)
Thromboxane A2 receptor [6] = target: T6, Thromboxane A2 receptor (Homo sapiens, UniProt P21731); type: functional
T6 sequence (P21731 whole entry): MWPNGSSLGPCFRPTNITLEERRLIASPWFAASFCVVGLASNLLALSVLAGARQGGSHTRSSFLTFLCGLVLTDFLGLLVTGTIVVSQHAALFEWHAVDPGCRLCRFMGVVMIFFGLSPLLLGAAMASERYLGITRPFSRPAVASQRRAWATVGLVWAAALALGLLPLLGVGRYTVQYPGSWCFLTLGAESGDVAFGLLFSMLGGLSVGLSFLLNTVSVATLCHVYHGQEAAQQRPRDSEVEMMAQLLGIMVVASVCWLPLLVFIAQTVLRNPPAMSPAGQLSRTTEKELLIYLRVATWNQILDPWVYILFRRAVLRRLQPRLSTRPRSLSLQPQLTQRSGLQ

Thromboxane A2 receptor [7] = target: T6, Thromboxane A2 receptor; type: functional, cell-based
D(1A) dopamine receptor [8] = target: T7, D(1A) dopamine receptor (Homo sapiens, UniProt P21728); type: functional, cell-based
D(1A) dopamine receptor [9] = target: T7, D(1A) dopamine receptor
Also: assay procedure not described here.

T7 sequence (P21728 whole entry): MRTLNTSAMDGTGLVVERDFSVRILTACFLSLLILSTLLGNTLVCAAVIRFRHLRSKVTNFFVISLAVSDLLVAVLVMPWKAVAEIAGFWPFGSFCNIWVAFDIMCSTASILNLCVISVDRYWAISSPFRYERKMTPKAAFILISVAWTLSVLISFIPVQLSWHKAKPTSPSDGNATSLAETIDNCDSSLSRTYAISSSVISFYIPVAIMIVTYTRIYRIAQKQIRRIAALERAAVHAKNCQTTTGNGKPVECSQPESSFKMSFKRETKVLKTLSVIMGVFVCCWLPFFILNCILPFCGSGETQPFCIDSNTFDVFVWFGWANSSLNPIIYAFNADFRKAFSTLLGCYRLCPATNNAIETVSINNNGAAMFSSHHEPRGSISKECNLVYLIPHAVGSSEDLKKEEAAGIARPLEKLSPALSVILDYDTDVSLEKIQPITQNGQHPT
Neurotensin receptor type 1, sequence (P30989 whole entry): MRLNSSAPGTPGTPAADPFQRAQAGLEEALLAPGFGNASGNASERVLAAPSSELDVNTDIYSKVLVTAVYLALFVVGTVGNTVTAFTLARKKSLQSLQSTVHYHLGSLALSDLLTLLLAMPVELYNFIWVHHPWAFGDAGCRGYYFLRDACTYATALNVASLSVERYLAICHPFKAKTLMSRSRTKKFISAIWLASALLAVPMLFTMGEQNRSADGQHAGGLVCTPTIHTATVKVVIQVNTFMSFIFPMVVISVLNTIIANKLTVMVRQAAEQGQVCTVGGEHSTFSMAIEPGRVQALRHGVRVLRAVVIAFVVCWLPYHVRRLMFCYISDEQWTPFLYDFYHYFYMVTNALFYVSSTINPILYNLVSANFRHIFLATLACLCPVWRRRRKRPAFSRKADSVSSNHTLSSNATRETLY
Glucagon receptor, sequence (P47871 whole entry): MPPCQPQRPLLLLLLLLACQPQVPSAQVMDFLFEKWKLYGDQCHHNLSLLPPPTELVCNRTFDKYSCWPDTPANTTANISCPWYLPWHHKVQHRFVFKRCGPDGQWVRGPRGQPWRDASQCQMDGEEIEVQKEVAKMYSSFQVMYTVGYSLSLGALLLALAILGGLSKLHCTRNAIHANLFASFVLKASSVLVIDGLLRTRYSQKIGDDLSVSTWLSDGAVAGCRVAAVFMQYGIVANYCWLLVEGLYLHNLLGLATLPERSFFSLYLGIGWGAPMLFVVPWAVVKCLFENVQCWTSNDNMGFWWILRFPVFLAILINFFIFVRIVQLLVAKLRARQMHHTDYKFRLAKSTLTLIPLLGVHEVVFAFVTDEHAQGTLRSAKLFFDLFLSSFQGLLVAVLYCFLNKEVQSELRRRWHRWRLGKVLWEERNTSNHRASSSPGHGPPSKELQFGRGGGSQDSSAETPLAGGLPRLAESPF
Beta-3 adrenergic receptor, sequence (P13945 whole entry): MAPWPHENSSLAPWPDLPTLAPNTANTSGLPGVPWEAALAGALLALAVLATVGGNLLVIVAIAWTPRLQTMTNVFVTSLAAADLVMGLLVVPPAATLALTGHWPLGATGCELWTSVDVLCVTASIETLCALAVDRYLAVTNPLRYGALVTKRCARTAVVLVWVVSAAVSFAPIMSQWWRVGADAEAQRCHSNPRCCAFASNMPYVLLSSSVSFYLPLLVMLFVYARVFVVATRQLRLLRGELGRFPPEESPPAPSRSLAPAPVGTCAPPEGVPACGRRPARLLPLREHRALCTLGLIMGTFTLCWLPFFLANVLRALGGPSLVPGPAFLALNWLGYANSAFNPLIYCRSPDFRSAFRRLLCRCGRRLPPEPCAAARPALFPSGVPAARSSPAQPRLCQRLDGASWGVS

Row | SMILES | AC50 [1] [µM] | AC50 (B1 bradykinin receptor) [µM] | AC50 [2] [µM] | AC50 (Glucagon receptor) [µM] | AC50 [3] [µM] | AC50 [4] [µM] | AC50 [5] [µM] | AC50 (Thromboxane A2 receptor [6]) [µM] | AC50 (Thromboxane A2 receptor [7]) [µM] | AC50 (D(1A) dopamine receptor [8]) [µM] | further results
1 | CN(C)CCC=C1c2ccccc2CCc2ccccc21 [AMITRIPTYLINE] | > 30 | > 30 | > 30 | > 30 | > 30 | > 30 | > 30 | > 30 | > 30 | – | AC50 (D(4) dopamine receptor): 0.819 µM
2 | NCC1(CC(=O)O)CCCCC1 [GABAPENTIN] | > 30 | > 30 | > 30 | > 30 | > 30 | > 30 | > 30 | > 30 | > 30 | > 30 | AC50 (D(4) dopamine receptor): > 10 µM
3 | C[C@H](CCC(=O)O)[C@H]1CC[C@H]2[C@@H]3[C@H](O)C[C@@H]4C[C@H](O)CC[C@]4(C)[C@H]3CC[C@]12C [CHENODIOL] | – | – | – | – | – | – | – | – | – | > 30 | –
4 | Nc1c2c(nc3ccccc13)CCCC2O (stereo not given) [VELNACRINE] | – | – | – | – | – | – | – | > 30 | > 30 | > 30 | –
5 | C#CCN(C)Cc1ccccc1 [PARGYLINE] | – | – | – | – | – | – | – | – | – | – | AC50 (D(1A) dopamine receptor [9]): > 30 µM
6 | CN(C)CCCC1(c2ccc(F)cc2)OCc2cc(C#N)ccc21 (stereo not given) [CITALOPRAM] | > 30 | > 30 | > 30 | > 30 | > 30 | > 30 | > 30 | – | – | – | AC50 (D(4) dopamine receptor): > 10 µM
7 | CO[C@@H]1[C@@H](OC(N)=O)[C@@H](O)[C@H](Oc2ccc3c(O)c(NC(=O)c4ccc(O)c(CC=C(C)C)c4)c(=O)oc3c2C)OC1(C)C [NOVOBIOCIN] | – | – | – | – | – | – | – | > 30 | > 30 | > 30 | –
8 | COc1cc2c(cc1OC)C1CC(=O)C(CC(C)C)CN1CC2 (stereo not given) [TETRABENAZINE] | – | – | – | – | – | – | – | – | – | > 30 | –
9 | CCC[C@@]1(CCc2ccccc2)CC(O)=C([C@H](CC)c2cccc(NS(=O)(=O)c3ccc(C(F)(F)F)cn3)c2)C(=O)O1 | – | – | – | – | – | – | – | – | – | 14 | –
10 | C[C@]12CCC(=O)C=C1CC[C@H]1[C@@H]3CC[C@](O)(C(=O)CO)[C@@]3(C)C[C@H](O)[C@@]12F [FLUDROCORTISONE] | > 30 | > 30 | > 30 | > 30 | > 30 | > 30 | > 30 | – | – | – | –
11 | CCOC(=O)[C@H](CCc1ccccc1)N[C@@H](C)C(=O)N1Cc2ccccc2C[C@H]1C(=O)O | > 30 | > 30 | > 30 | > 30 | > 30 | > 30 | > 30 | – | – | – | AC50 (D(4) dopamine receptor): > 10 µM
12 | CC(=O)Oc1ccccc1C(=O)O [ASPIRIN] | > 30 | > 30 | > 30 | > 30 | > 30 | > 30 | > 30 | > 30 | > 30 | – | AC50 (D(4) dopamine receptor): > 10 µM
13 | C[C@H](Nc1ncnc2[nH]cnc12)c1cc2cccc(Cl)c2c(=O)n1-c1ccccc1 [DUVELISIB] | – | – | – | – | – | – | – | – | – | > 30 | AC50 (D(1A) dopamine receptor [9]): > 30 µM
14 | CC#CC(=O)N1CCC[C@H]1c1nc(-c2ccc(C(=O)Nc3ccccn3)cc2)c2c(N)nccn12 [ACALABRUTINIB] | – | – | – | – | – | – | – | – | – | – | AC50 (D(1A) dopamine receptor [9]): > 30 µM
15 | CC(=O)SCC(Cc1ccccc1)C(=O)NCC(=O)OCc1ccccc1 (stereo not given) [RACECADOTRIL] | > 30 | – | – | – | – | – | – | – | – | – | –
16 | Cc1c(C)c2c(c(C)c1O)CCC(C)(COc1ccc(CC3SC(=O)NC3=O)cc1)O2 (stereo not given) [TROGLITAZONE] | > 30 | > 30 | > 30 | > 30 | > 30 | > 30 | > 30 | – | – | – | –
17 | CCCCCCO[C@@H](C)c1cccc(-c2csc(NC(=O)c3cc(Cl)c(/C=C(\C)C(=O)O)c(Cl)c3)n2)c1OC [LUSUTROMBOPAG] | – | – | – | – | – | – | – | – | – | – | AC50 (D(1A) dopamine receptor [9]): 5.53 µM
18 | O=C1[C@@H]2[C@H]3CC[C@H](C3)[C@@H]2C(=O)N1C[C@@H]1CCCC[C@H]1CN1CCN(c2nsc3ccccc23)CC1 [LURASIDONE] | – | – | – | – | – | – | – | > 30 | – | – | –
19 | O=C(Cc1cccs1)N[C@@H]1C(=O)N2C(C(=O)[O-])=C(C[n+]3ccccc3)CS[C@H]12 [CEPHALORIDINE] | – | – | – | – | – | – | – | – | – | – | AC50 (D(1A) dopamine receptor [9]): > 30 µM
20 | c1cnc2cc3c(cc2n1)[C@@H]1CNC[C@H]3C1 [VARENICLINE] | – | – | – | – | – | – | – | > 30 | > 30 | > 30 | –
21 | CN1CC2c3ccccc3Oc3ccc(Cl)cc3C2C1 (stereo not given) [ASENAPINE] | – | – | – | – | – | – | – | – | – | 0.244 | –
22 | Cn1cnc2c(F)c(Nc3ccc(Br)cc3F)c(C(=O)NOCCO)cc21 [BINIMETINIB] | – | – | – | – | – | – | – | > 30 | > 30 | > 30 | –
23 | O=C(O)[C@@H](S)[C@@H](S)C(=O)O | – | – | – | – | – | – | – | – | – | – | AC50 (D(1A) dopamine receptor [9]): > 30 µM
24 | OCCOCCN1CCN(C(c2ccccc2)c2ccc(Cl)cc2)CC1 (stereo not given) [HYDROXYZINE] | > 30 | > 30 | > 30 | > 30 | > 30 | > 30 | > 30 | – | – | – | AC50 (D(4) dopamine receptor): 8.54 µM
25 | C[C@@H](O)[C@H]1C(=O)N2C(C(=O)O)=C(SCCN=CN)C[C@H]12 [IMIPENEM ANHYDROUS] | – | – | – | – | – | – | – | > 300 | > 300 | > 300 | –
26 | Nc1nnc(-c2cccc(Cl)c2Cl)c(N)n1 [LAMOTRIGINE] | > 30 | > 30 | > 30 | > 30 | > 30 | > 30 | > 30 | – | – | – | AC50 (D(4) dopamine receptor): > 10 µM
